Legend:
Experiment in all cases: KINOMEscan competition binding
Details in all cases: compound 10.0 µM
BTK (human) = BTK (human) (UniProt Q06187)
CDK13 (human) = CDK13 (human) (UniProt Q14004)
CDK4 CCND1 (human) = CDK4 CCND1 (human) (UniProt P11802+P24385)
CDKL3 (human) = CDKL3 (human) (UniProt Q8IVW4)
CDKL5 (human) = CDKL5 (human) (UniProt O76039)
CRK2 (P.falciparum) = CRK2 (P.falciparum) (UniProt P61075)
DDR1 (human) = DDR1 (human) (UniProt Q08345)
DYRK1A (human) = DYRK1A (human) (UniProt Q13627)
DYRK2 (human) = DYRK2 (human) (UniProt Q92630)
[1] = system: EGFR (human), P00533 [746-750 del]
[2] = system: EGFR (human), P00533 [G719S]
[3] = system: EGFR (human), P00533 [L861Q]
[4] = system: EGFR (human), P00533 [P753S; 747-752 del]
[5] = system: FLT3 (human), P36888 [K663Q]
GRK7 (human) = GRK7 (human) (UniProt Q8WTQ7)
IRAK4 (human) = IRAK4 (human) (UniProt Q9NWZ3)
KIT (human) = KIT (human) (UniProt P10721)
[6] = system: KIT (human), P10721 [V559D/T670I]
MAK (human) = MAK (human) (UniProt P20794)
MAP2K5 (human) = MAP2K5 (human) (UniProt Q13163)
MAP3K15 (human) = MAP3K15 (human) (UniProt Q6ZN16)
MYLK3 (human) = MYLK3 (human) (UniProt Q32MK0)
NEK4 (human) = NEK4 (human) (UniProt P51957)
NIM1 (human) = NIM1 (human) (UniProt Q8IY84)
OXSR1 (human) = OXSR1 (human) (UniProt O95747)
[7] = system: PIK3CA (human), P42336 [C420R]
[8] = system: PIK3CA (human), P42336 [H1047Y]
[9] = system: PIK3CA (human), P42336 [I800L]
[10] = system: PIK3CA (human), P42336 [Q546K]
PIP4K2C (human) = PIP4K2C (human) (UniProt Q8TBX8)
PKN3 (M.tuberculosis) = PKN3 (M.tuberculosis) (UniProt Q6P5Z2)
PLK2 (human) = PLK2 (human) (UniProt Q9NYY3)
PRKCI (human) = PRKCI (human) (UniProt P41743)
RPS6KB1 (human) = RPS6KB1 (human) (UniProt P23443)
SBK1 (human) = SBK1 (human) (UniProt Q52WX2)
SGK3 (human) = SGK3 (human) (UniProt Q96BR1)
STK32A (human) = STK32A (human) (UniProt Q8WU08)
STK38 (human) = STK38 (human) (UniProt Q15208)
TBK1 (human) = TBK1 (human) (UniProt Q9UHD2)

PIK3CA (human), P42336 [I800L], sequence (P42336 whole entry I800L, looked up): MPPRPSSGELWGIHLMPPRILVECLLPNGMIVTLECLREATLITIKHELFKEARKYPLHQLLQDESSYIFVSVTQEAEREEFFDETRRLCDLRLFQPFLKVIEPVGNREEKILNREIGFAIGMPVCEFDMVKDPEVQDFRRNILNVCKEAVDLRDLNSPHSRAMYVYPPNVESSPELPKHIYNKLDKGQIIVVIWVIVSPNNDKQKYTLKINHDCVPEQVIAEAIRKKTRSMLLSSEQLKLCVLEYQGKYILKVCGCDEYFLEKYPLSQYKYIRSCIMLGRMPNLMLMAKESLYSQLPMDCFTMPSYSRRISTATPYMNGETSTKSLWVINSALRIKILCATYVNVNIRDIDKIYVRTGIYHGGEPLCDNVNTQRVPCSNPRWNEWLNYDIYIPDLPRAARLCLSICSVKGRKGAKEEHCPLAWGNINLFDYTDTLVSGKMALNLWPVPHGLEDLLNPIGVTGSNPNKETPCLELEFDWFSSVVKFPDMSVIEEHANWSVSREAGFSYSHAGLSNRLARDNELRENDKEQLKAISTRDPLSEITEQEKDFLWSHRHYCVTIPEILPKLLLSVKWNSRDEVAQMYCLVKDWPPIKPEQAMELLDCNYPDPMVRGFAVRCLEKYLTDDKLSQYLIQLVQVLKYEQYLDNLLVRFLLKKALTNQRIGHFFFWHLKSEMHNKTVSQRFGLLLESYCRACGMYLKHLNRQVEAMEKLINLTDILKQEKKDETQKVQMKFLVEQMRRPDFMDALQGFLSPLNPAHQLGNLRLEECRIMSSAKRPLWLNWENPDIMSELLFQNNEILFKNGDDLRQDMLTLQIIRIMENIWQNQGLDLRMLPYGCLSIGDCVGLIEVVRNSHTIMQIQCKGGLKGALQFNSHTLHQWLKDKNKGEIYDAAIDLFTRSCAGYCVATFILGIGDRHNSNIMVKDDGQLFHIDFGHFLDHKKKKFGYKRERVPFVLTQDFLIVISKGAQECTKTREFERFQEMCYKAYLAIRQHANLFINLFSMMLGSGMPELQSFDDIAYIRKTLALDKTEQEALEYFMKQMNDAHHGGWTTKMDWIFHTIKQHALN
STK38 (human), sequence (Q15208 whole entry, looked up): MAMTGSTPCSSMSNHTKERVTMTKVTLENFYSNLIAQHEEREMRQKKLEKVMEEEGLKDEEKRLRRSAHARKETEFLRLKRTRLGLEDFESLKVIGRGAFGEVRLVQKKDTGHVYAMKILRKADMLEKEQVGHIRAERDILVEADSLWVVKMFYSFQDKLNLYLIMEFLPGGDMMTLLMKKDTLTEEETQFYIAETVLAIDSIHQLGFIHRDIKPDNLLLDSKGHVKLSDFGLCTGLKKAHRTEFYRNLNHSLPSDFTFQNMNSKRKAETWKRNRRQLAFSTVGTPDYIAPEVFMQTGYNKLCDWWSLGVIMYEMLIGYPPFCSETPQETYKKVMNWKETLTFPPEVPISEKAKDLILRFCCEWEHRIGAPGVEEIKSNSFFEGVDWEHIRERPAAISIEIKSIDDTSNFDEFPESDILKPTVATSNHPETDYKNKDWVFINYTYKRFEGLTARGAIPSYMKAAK
MAP3K15 (human), sequence (Q6ZN16 whole entry, looked up): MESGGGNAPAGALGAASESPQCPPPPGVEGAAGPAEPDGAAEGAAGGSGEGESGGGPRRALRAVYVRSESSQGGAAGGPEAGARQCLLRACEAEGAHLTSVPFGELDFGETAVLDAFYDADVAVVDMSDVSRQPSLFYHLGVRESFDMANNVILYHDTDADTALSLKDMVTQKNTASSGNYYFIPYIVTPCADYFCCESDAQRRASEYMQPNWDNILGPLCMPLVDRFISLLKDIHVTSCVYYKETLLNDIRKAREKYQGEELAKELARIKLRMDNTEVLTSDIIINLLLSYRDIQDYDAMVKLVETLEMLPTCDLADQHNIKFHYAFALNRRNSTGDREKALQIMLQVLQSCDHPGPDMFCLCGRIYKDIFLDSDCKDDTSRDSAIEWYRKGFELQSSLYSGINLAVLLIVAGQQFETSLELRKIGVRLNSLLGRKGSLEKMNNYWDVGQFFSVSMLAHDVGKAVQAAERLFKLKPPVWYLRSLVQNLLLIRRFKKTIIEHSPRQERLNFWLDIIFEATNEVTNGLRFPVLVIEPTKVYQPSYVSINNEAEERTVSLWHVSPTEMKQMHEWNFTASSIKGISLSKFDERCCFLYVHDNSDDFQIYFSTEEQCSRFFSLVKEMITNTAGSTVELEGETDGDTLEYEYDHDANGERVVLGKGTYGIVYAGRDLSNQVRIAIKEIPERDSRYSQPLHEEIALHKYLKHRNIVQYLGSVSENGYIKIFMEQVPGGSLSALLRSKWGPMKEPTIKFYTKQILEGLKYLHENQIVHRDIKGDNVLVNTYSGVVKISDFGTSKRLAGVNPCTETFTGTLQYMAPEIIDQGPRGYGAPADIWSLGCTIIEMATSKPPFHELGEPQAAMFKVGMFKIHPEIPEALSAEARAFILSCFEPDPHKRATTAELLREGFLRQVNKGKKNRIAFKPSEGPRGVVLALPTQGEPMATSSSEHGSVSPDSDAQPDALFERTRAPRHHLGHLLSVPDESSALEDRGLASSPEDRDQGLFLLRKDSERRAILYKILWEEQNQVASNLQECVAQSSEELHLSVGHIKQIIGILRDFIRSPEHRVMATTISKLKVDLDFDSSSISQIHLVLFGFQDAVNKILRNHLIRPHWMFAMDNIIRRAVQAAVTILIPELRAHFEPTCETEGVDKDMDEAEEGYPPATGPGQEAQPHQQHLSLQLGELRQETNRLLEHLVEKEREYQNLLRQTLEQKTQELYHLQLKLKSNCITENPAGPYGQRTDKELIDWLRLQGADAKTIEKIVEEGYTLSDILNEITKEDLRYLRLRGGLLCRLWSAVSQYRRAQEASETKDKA
KIT (human), sequence (P10721 whole entry, looked up): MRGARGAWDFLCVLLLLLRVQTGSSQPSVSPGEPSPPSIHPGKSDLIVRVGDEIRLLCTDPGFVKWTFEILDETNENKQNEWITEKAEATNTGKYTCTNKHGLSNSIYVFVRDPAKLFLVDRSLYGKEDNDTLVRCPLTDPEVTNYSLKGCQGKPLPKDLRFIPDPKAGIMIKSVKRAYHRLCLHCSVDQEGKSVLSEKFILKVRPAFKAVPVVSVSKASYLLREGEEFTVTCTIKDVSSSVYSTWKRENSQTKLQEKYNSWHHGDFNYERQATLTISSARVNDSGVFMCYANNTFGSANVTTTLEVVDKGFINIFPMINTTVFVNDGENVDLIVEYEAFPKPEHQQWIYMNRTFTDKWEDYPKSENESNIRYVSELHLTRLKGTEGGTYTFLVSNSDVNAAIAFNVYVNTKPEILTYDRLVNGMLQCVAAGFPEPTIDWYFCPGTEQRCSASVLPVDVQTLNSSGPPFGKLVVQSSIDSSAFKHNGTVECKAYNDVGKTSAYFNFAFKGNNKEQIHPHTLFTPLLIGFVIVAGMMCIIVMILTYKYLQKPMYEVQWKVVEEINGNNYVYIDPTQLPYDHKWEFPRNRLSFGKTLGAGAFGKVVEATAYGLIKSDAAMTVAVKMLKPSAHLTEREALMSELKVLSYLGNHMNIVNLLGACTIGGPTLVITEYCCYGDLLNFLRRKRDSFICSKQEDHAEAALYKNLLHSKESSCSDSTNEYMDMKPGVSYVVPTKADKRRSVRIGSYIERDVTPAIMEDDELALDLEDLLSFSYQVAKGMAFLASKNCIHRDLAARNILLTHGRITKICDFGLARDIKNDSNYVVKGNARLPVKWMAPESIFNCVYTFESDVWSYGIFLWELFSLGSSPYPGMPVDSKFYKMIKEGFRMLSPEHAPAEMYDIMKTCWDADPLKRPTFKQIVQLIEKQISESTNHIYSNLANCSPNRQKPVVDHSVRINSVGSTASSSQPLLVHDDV
DYRK2 (human), sequence (Q92630 whole entry, looked up): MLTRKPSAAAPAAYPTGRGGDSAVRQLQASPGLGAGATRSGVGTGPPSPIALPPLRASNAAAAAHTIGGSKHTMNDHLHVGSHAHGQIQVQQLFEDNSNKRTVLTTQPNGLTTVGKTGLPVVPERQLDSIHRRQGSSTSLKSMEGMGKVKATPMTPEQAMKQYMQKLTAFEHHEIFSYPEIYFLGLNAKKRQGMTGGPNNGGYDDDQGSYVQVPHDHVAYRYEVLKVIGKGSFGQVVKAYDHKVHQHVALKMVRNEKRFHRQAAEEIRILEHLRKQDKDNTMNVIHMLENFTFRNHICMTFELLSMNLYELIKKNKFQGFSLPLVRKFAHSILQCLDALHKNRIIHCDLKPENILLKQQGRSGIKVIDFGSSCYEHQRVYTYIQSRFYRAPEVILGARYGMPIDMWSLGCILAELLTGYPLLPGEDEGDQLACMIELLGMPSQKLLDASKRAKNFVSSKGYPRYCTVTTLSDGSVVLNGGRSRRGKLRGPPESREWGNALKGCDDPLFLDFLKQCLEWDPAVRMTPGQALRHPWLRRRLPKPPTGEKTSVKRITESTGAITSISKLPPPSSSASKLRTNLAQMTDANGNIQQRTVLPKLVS
PIP4K2C (human), sequence (Q8TBX8 whole entry, looked up): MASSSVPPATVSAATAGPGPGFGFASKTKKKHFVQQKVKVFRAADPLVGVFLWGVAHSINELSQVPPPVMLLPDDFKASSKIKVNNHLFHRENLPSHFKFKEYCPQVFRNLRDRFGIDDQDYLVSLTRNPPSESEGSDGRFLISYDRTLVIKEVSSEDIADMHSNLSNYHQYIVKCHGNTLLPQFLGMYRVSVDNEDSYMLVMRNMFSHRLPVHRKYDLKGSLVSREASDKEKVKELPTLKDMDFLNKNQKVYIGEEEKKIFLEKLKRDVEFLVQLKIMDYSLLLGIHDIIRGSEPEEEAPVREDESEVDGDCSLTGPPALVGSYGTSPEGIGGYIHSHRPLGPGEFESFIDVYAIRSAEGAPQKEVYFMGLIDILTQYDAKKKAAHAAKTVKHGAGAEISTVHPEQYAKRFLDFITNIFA

SMILES	kinase still bound, per cent of control (BTK (human)) [%]	kinase still bound, per cent of control (CDK13 (human)) [%]	kinase still bound, per cent of control (CDK4 CCND1 (human)) [%]	kinase still bound, per cent of control (CDKL3 (human)) [%]	kinase still bound, per cent of control (CDKL5 (human)) [%]	kinase still bound, per cent of control (CRK2 (P.falciparum)) [%]	kinase still bound, per cent of control (DDR1 (human)) [%]	kinase still bound, per cent of control (DYRK1A (human)) [%]	kinase still bound, per cent of control (DYRK2 (human)) [%]	kinase still bound, per cent of control [1] [%]	kinase still bound, per cent of control [2] [%]	kinase still bound, per cent of control [3] [%]	kinase still bound, per cent of control [4] [%]	kinase still bound, per cent of control [5] [%]	kinase still bound, per cent of control (GRK7 (human)) [%]	kinase still bound, per cent of control (IRAK4 (human)) [%]	kinase still bound, per cent of control (KIT (human)) [%]	kinase still bound, per cent of control [6] [%]	kinase still bound, per cent of control (MAK (human)) [%]	kinase still bound, per cent of control (MAP2K5 (human)) [%]	other results
CN(C)C/C=C/C(=O)Nc1cccc(Nc2ncc3c(n2)N(C)c2ccccc2C(=O)N3C)c1	42	96	78	100	100	100	5.4	73	47	90	67	73	100	37	100	73	66	65	100	45	kinase still bound, per cent of control (MAP3K15 (human)): 69%; kinase still bound, per cent of control (MYLK3 (human)): 100%; kinase still bound, per cent of control (NEK4 (human)): 87%; kinase still bound, per cent of control (NIM1 (human)): 21%; kinase still bound, per cent of control (OXSR1 (human)): 25%; kinase still bound, per cent of control [7]: 72%; kinase still bound, per cent of control [8]: 51%; kinase still bound, per cent of control [9]: 55%; kinase still bound, per cent of control [10]: 30%; kinase still bound, per cent of control (PIP4K2C (human)): 6%; kinase still bound, per cent of control (PKN3 (M.tuberculosis)): 42%; kinase still bound, per cent of control (PLK2 (human)): 37%; kinase still bound, per cent of control (PRKCI (human)): 97%; kinase still bound, per cent of control (RPS6KB1 (human)): 63%; kinase still bound, per cent of control (SBK1 (human)): 7.6%; kinase still bound, per cent of control (SGK3 (human)): 90%; kinase still bound, per cent of control (STK32A (human)): 100%; kinase still bound, per cent of control (STK38 (human)): 74%; kinase still bound, per cent of control (TBK1 (human)): 58%
O=C(NC1CC1)c1cccc(-c2ccc3c(NC(=O)C4CC4)n[nH]c3c2)c1	100	82	94	55	42	100	71	98	36	90	85	69	96	61	84	88	37	43	51	5	kinase still bound, per cent of control (MAP3K15 (human)): 100%; kinase still bound, per cent of control (MYLK3 (human)): 46%; kinase still bound, per cent of control (NEK4 (human)): 100%; kinase still bound, per cent of control (NIM1 (human)): 100%; kinase still bound, per cent of control (OXSR1 (human)): 98%; kinase still bound, per cent of control [7]: 100%; kinase still bound, per cent of control [8]: 89%; kinase still bound, per cent of control [9]: 100%; kinase still bound, per cent of control [10]: 98%; kinase still bound, per cent of control (PIP4K2C (human)): 95%; kinase still bound, per cent of control (PKN3 (M.tuberculosis)): 15%; kinase still bound, per cent of control (PLK2 (human)): 88%; kinase still bound, per cent of control (PRKCI (human)): 74%; kinase still bound, per cent of control (RPS6KB1 (human)): 100%; kinase still bound, per cent of control (SBK1 (human)): 100%; kinase still bound, per cent of control (SGK3 (human)): 42%; kinase still bound, per cent of control (STK32A (human)): 78%; kinase still bound, per cent of control (STK38 (human)): 85%; kinase still bound, per cent of control (TBK1 (human)): 61%
CCN1CCN(Cc2ccc(Nc3ncc4c(n3)N(C)c3ccccc3C(=O)N4C)cc2C(F)(F)F)CC1	67	100	65	100	100	100	14	51	97	74	99	98	79	62	73	100	57	74	100	35	kinase still bound, per cent of control (MAP3K15 (human)): 74%; kinase still bound, per cent of control (MYLK3 (human)): 100%; kinase still bound, per cent of control (NEK4 (human)): 80%; kinase still bound, per cent of control (NIM1 (human)): 57%; kinase still bound, per cent of control (OXSR1 (human)): 59%; kinase still bound, per cent of control [7]: 18%; kinase still bound, per cent of control [8]: 3.3%; kinase still bound, per cent of control [9]: 12%; kinase still bound, per cent of control [10]: 3.2%; kinase still bound, per cent of control (PIP4K2C (human)): 3.6%; kinase still bound, per cent of control (PKN3 (M.tuberculosis)): 22%; kinase still bound, per cent of control (PLK2 (human)): 100%; kinase still bound, per cent of control (PRKCI (human)): 100%; kinase still bound, per cent of control (RPS6KB1 (human)): 48%; kinase still bound, per cent of control (SBK1 (human)): 6.9%; kinase still bound, per cent of control (SGK3 (human)): 86%; kinase still bound, per cent of control (STK32A (human)): 81%; kinase still bound, per cent of control (STK38 (human)): 95%; kinase still bound, per cent of control (TBK1 (human)): 60%
C=CC(=O)Nc1cc(NC(=O)c2ccc(C)c(NC(=O)c3ccno3)c2)cc(C(F)(F)F)c1	100	100	100	90	100	98	0.1	99	78	81	100	100	79	100	100	99	4.7	77	84	80	kinase still bound, per cent of control (MAP3K15 (human)): 77%; kinase still bound, per cent of control (MYLK3 (human)): 91%; kinase still bound, per cent of control (NEK4 (human)): 84%; kinase still bound, per cent of control (NIM1 (human)): 98%; kinase still bound, per cent of control (OXSR1 (human)): 100%; kinase still bound, per cent of control [7]: 82%; kinase still bound, per cent of control [8]: 95%; kinase still bound, per cent of control [9]: 93%; kinase still bound, per cent of control [10]: 78%; kinase still bound, per cent of control (PIP4K2C (human)): 90%; kinase still bound, per cent of control (PKN3 (M.tuberculosis)): 75%; kinase still bound, per cent of control (PLK2 (human)): 100%; kinase still bound, per cent of control (PRKCI (human)): 100%; kinase still bound, per cent of control (RPS6KB1 (human)): 87%; kinase still bound, per cent of control (SBK1 (human)): 100%; kinase still bound, per cent of control (SGK3 (human)): 100%; kinase still bound, per cent of control (STK32A (human)): 100%; kinase still bound, per cent of control (STK38 (human)): 90%; kinase still bound, per cent of control (TBK1 (human)): 100%

— the kinase profiling compilation of Christmann-Franck et al. (2016)
